# Results published in patent US20100189681A1, “Methods of Using Phosphoantigens Together with Interleukin-2 for the Treatment of Cancer” (INNATE PHARMA S.A., priority 2007, published 2010).
# “Also recorded” adds a separate entry of the source.
# How the values were obtained:
# γδ T cells [1] = details: adults with multiple myeloma, intravenous 60-90 mg, within one to three weeks (Kunzmann, 1999); cited from earlier work
# [2] = in vivo; cited from earlier work
# [3] = Phase II clinical trial in B-NHL with rituximab, tolerance / toxicity; format: in vivo, human; details: B-NHL patients
# Protocol: (§1) 5 patients suffering from B-NHL are treated with 4 MIU total in human daily (arm A, 3 patients), or 8 MIU total in human daily (arm B, 2 patients). The treatment regimen used for this study is set out in FIG. 4B.
# (§2) Rituxan™ (rituximab) is administered at a dose of 375 mg/m^2, on day 0 and then on day 7, 14 and 21, which corresponds to the common Rituxan™ treatment. Phosphostim™ is administered once on day 7 which is the first day of treatment. IL-2 is administered daily subcutaneous (s.c.) from day 7 to day 11. On day 7, IL-2 is administered 10 minutes after the end of Phosphostim™ infusion.
# γδ T cells [4] = assay: Phase I BrHPP dose escalation with IL-2 1 MU/m^2, γδ T cell amplification (FIG. 7); format: in vivo, human; details: BrHPP 100, 300, 600 and 900 MU/m^2 iv 30 min infusion day 1; IL-2 1 MU/m^2 daily for four days
# Protocol: The first four columns (corresponding to 100, 300, 600 and 900 MU/m^2 doses of BrHPP) correspond to patients treated with BrHPP (iv, 30 min infusion on day 1) and IL-2 (1 MU/m^2 daily for four days starting on day 1) whereas the last two columns represent B-NHL patients who have been treated with 4 MIU total in human daily (arm A), or 8 MIU total in human daily (arm B), in the treatment setting described for FIG. 6.
# γδ T cells [5] = assay: Phase II clinical trial in mRCC, γδ T cell fold increase day 7 vs pre-dose (flow cytometry); format: in vivo, human
# Protocol: Blood samples (4 ml) were withdrawn into EDTA containing tubes. Tubes were shipped overnight at room temperature (RT) before flow cytometry analyses.
# Peripheral lymphocytes were analyzed by flow cytometry on total blood, after triple staining with anti-Vδ2FITC, anti-CD3PE and anti-CD25PC5 antibodies (Vδ2-FITC: IMMU389 clone, Immunotech-Beckman-Coulter, Marseilles, France; CD3-PE: UCHT1 clone, Immunotech-Beckman-Coulter; CD25PC5: M-A251 clone, Becton Dickinson, Le Pont de Claix, France).
# Briefly, 100 μl patient blood was incubated 15 min at RT with 10 μl anti-Vdelta2-FITC, 10 μl anti-CD3-PE and 10 μl anti-CD25PC5 antibodies. Antibodies were washed with 3 ml 1×PBS, centrifuged for 4 min at 1300 rpm at RT and supernatant was discarded. Red cells were lysed with the OptiLyse B reagent (Immunotech-Beckman-Coulter, Marseilles, France) according to the manufacturer's instructions. At the final step, stained white blood cells were recovered by centrifugation and resuspended in 300 μl 1×PBS+0.2% PFA. Flow cytometry analysis on viable cells was performed on a FacsSCAN apparatus (Becton Dickinson) with the FacsDiva software.
# (§3) A phase II clinical trial in mRCC was set up, to test the efficacy of a therapeutic regimen with a fixed dose of Phosphostim™ (750 mg/m^2, 50 ml infusion in 30 min) and two doses of IL-2.
# (§4) Patients in Arm A were treated with an IL-2 dose of 2 MIU total daily (equivalent to approximately 1 MIU/m^2 daily). Patients in Arm B were treated with an IL-2 dose of 8 MIU total daily. For practical reasons, and as a human body surface varies from 1.5 to 2.1 m^2 depending on each variable of the patient, a single dose for all the patients of Arm B was fixed. It will be appreciated that when taking the variations in body surface into account, this 8 MIU total daily dose of IL-2 can also be expressed as a range from […] daily.
# (§5) Patients suffering from mRCC were treated with a fixed dose of Phosphostim™ (750 mg/m^2, i.v. infusion of 30 min) and IL-2, at a dose of 2 MIU subcutaneous (s.c.) daily (arm A, 18 patients), or 8 MIU s.c. daily (arm B, 21 patients).
# (§6) Phosphostim™ was administered once on day 1 which is the first day of treatment. IL-2 is administered daily s.c. from day 1 to day 5. On day 1, IL-2 is administered 10 minutes after the end of Phosphostim™ infusion.
# γδ T cell population was measured through cytometry on day 0 (before the beginning of the treatment) and on day 7. The expansion of γδ T cell was obtained in fold increase of expansion compared to the basal γδ T cell count.
# [6] = Phase II clinical trial in mRCC, tolerance / toxicity; format: in vivo, human; details: mRCC patients
# Protocol: as §3, §4, §5, §6
# total T cells = assay: Phase II clinical trial in mRCC, total T cell fold increase day 7 vs pre-dose; format: in vivo, human; details: Phosphostim with IL-2 2 MIU or 8 MIU total daily (FIG. 3)
# Protocol: (§7) FIG. 3 has been obtained from observations made during the clinical trial as described above. On day 7, cell subsets were determined and compared to the count made on day 0, before the treatment.
# (§8) A specific pharmacological expansion of γδ T cell with Phosphostim™ was observed, and this expansion was related to dose of IL-2 administered. […] Moreover, despite an increased dose of IL-2 compared to previous publications, this expansion is still very specific to γδ T cells.
# γδ T cells [7] = assay: Phase II clinical trial in B-NHL with rituximab, γδ T cell fold increase; format: in vivo, human; details: for γδ T cell fold increase as compared to pre-dose (mean): B-NHL, Phosphostim once day 7, rituximab 375 mg/m^2, measured day 0 and day 145
# Protocol: as §1, §2
# γδ T cell population is measured through cytometry on day 0 (before the beginning of the treatment) and on day 145 (corresponds to day 7 from the beginning of the Phosphostim™ treatment. The expansion of γδ T cell is obtained in fold increase compared to the basal γδ T cell count.
# Vγ9Vδ2 T cells = assay: IL-2 dose range with fixed dose of Phosphostim in cynomolgus macaque, Vγ9Vδ2 T cell expansion by flow cytometry; format: in vivo, cynomolgus monkeys (M. fascicularis); details: Phosphostim 48 mg/kg i.v. once, day 5 vs day 0
# Protocol: As detailed in Example 2, a study has been set up on nonhuman primates (Cynomolgus macaques) to investigate the effect of the IL-2 dose on γδ T cell expansion in vivo, with a fixed dose of Phosphostim™ (48 mg/kg). Blood extracts have been dosed by flow cytometry on day 5 and the γδ T cell expansion has been expressed in expansion percentage compared to the basal γδ T cell count.
# Follow up of Vγ9Vδ2 T cells in vivo in the macaque has been performed as usual by flow cytometry on days 0 (pre-dose) and 5 of treatment. […]
# IL2: recombinant human IL2, Proleukin™, CHIRON; administered daily by subcutaneous (s.c.) route.
# Phosphostim™ dose 48 mg/kg administered as 30-min infusion by intravenous (i.v.) route.
# Twelve cynomolgus monkeys (M. fascicularis) aged 2.5 to 3.5 years at the start of the study. These animals were naïve of any previous treatment with phosphoantigens or IL2.
# The animals have been allocated to 4 dose-groups (0.075, 0.3, 1.2 and 2.4 million UI per day for 7 days), with 3 animals per dose, receiving IL2 daily for 7 days have, and a fixed dose of Phosphostim™ 200 (48 mg/kg) once, on the first day of treatment, with 3 animals per dose.
# NK cells = assay: Phase II clinical trial in mRCC, NK cell fold increase day 7 vs pre-dose; format: in vivo, human; details: Phosphostim with IL-2 2 MIU or 8 MIU total daily (FIG. 3)
# Protocol: as §7, §8
compound,measurement,setting,value
"NCCC(O)(P(=O)(O)O)P(=O)(O)O [pamidronate, 3-amino-1-hydroxypropane-1,1-diphosphonic acid]",circulating γδ T cells,γδ T cells [1],increases of circulating γδ T cells
"des-alanyl-1, serine-125-human interleukin-2 [IL-2]",toxicity grade reported,[2],grade III or IV toxicity
3-(bromomethyl)-3-butanol-1-yl-diphosphate [Phosphostim™],toxicity in Arm B compared to Arm A,[3]; IL-2 8 MIU vs 4 MIU total daily,no significant difference in toxicity
same,tolerance to the IL-2 dose administered with Phosphostim and rituximab,[3]; arm B IL-2 8 MIU total daily,good tolerance
same,influence of the quantity of BrHPP on the γδ T cell amplification,γδ T cells [4],slight influence
same,"γδ T cell expansion, arm B compared to arm A","γδ T cells [5]; IL-2 8 MIU total daily vs 2 MIU total daily, fixed Phosphostim 750 mg/m^2",significantly better γδ T cell expansion; also recorded: significantly higher
same,γδ T cell fold increase on day 7 as compared to pre-dose (mean),"γδ T cells [5]; arm A: IL-2 2 MIU total daily s.c. day 1-5, Phosphostim 750 mg/m^2 i.v. day 1, 18 patients (FIG. 2)",3 fold
same,γδ T cell fold increase on day 7 as compared to pre-dose (mean),"γδ T cells [5]; arm A: IL-2 2 MIU total daily, updated results, 29 patients (FIG. 5)",2 fold
same,γδ T cell fold increase on day 7 as compared to pre-dose (mean),"γδ T cells [5]; arm B: IL-2 8 MIU total daily s.c. day 1-5, Phosphostim 750 mg/m^2 i.v. day 1, 21 patients (FIG. 2)",12 fold
same,γδ T cell fold increase on day 7 as compared to pre-dose (mean),"γδ T cells [5]; arm B: IL-2 8 MIU total daily, updated results, 31 patients (FIG. 5)",8 fold
same,toxicity in Arm B compared to Arm A,[6]; IL-2 8 MIU vs 2 MIU total daily with Phosphostim,none of the patients in arm B experienced an adverse toxicity effect; also recorded: no significant difference in toxicity
same,tolerance to the IL-2 dose administered with Phosphostim,[6]; arm B IL-2 8 MIU total daily,good tolerance
same,total T cell fold increase on day 7 as compared to pre-dose,total T cells,are not expanded; also recorded: nor a significant total T cell expansion
same,γδ T cell fold increase as compared to pre-dose (mean),"γδ T cells [7]; arm A: IL-2 4 MIU total daily s.c. day 7-11, 3 patients",17 fold
same,γδ T cell fold increase as compared to pre-dose (mean),"γδ T cells [7]; arm B: IL-2 8 MIU total daily s.c. day 7-11, 2 patients",46 fold
same,"γδ T cell amplification, higher IL-2 dose compared to lower dose",γδ T cells [7]; IL-2 8 MIU total daily vs lower IL-2 doses (FIGS. 6 and 7),much better γδ T cell amplification
same,γδ T cell expansion,Vγ9Vδ2 T cells; IL-2 0.075 MIU/animal/day s.c. for 7 days,not sufficient to induce a γδT cell specific amplification; also recorded: no effect
same,γδ T cell expansion,Vγ9Vδ2 T cells; IL-2 0.3 MIU/animal/day s.c. for 7 days,specific and significant γδcell expansion; also recorded: weak γδT cell increase
same,γδ T cell expansion,Vγ9Vδ2 T cells; IL-2 1.2 MIU/animal/day s.c. for 7 days,the expansion is higher; also recorded: significantly higher increase; also recorded: a plateau is observed at this dose
same,γδ T cell expansion,Vγ9Vδ2 T cells; IL-2 2.4 MIU/animal/day s.c. for 7 days,the expansion is higher; also recorded: significantly higher increase; also recorded: does not trigger a better expansion than 1.2 MIU/animal/daily
same,NK cell fold increase on day 7 as compared to pre-dose,NK cells,are not expanded; also recorded: do not observe a significant NK cells expansion
